Test [1] deals with Vincristine-resistant strain P388/VCR cells of mouse leukemia P388 cells. In words: Potentiating effect on vincristine in mice having vincristine-resistant mouse leukemia (survival). The conditions noted are these: compound 30 mg/kg + vincristine 100 ug/kg, peritoneal, once a day for 5 days; for T/C (rate of life prolongation): control = 100. The test is classed as in vivo, mouse (female CDFI mice).

The subject of test [2] is Adriamycin resistant strain 2780 AD cells of human ovarian cancer A2780 cells. As to the kind of experiment: Potentiating effect on incorporation of 3H-vincristine into adriamycin-resistant cancer cells. The format is cell-based. The conditions noted are these: Homo sapiens, 2780AD, 2 h, 20 nM 3H-vincristine, control = 100, read-out: 3H-vincristine accumulation; for activity at 1 µg/mL: compound 1 μg/ml; for activity at 10 µg/mL: compound 10 μg/ml. Here is the method: Potentiating Effect of the Compounds on Incorporation of Anticancer Drugs into Drug-resistant Cancer Cells
Adriamycin resistant strain 2780 AD cells of human ovarian cancer A2780 cells (A. M. Rogan et al., Science 224, 994-996, 1984) were suspended at a concentration of 1×10^6 /ml in RPMI-1640 medium supplemented with 5% fetal calf serum, and 1 ml of the cancer cell suspension was dispensed into each well of a multi-well culture plate (24 wells, […] in diameter) and then incubated at 37° C. in an atmosphere of 5% CO2. After 24 hours incubation, the medium in each well was replaced by 0.5 ml of RPMI-1640 medium supplemented containing 20 nM ^3 H-vincristine (1×10^4 dpm/pmol), 5% fetal calf serum and 10 mM Hepes buffer. Five microliters of a solution of the compound to be tested, which had been dissolved in DMSO and diluted with […] (at a concentration of 1.0 microgram/ml or 10.0 micrograms/ml), was added to each well and the incubation was continued at 37° C. in 5% CO2 for 2 hours. The resultant cells were washed in cold saline-phosphate buffer. In each well was added 0.5 ml of 0.2N NaOH, and the resulting cell suspension in each well was independently transferred into a vial and then heated in a water bath at 56° C. for 30-60 minutes to dissolve the cells. After adding 4 ml of acid aquazole 2, the amount of ^3 H-vincristine incorporated into the cells was determined by a fluid scintillation counter.

Turning to `COc1ccc2c(OCC(O)CN3CCN(C4c5ccccc5CCc5ccccc54)CC3)cccc2n1` (stereo not shown) [Example 9, 5-[3-(4-(Dibenzosuberane-5-yl)piperazine-1-yl)-2-hydroxypropoxy]-2-methoxyquinoline], in test [1], the Average surviving period is on record as 14.2 ± 0.6 days and the “T/C (rate of life prolongation)” value is reported as 134%. Besides, in test [2], the activity at 1 µg/mL was found to be 721% and the activity at 10 µg/mL is 947%.

With `OC(COc1cccc2nc(Cl)ccc12)CN1CCN(C(c2ccccc2)c2ccccc2)CC1` (stereo not shown) [Example 41, 2-Chloro-5-[3-(4-diphenylmethylpiperazine-1-yl)-2-hydroxypropoxy]quinoline], in test [1], the Average surviving period is 13.2 ± 1.8 days and the “T/C (rate of life prolongation)” value came out at 120%. In addition, in test [2], the activity at 1 µg/mL amounted to 584%.

`COc1ccc2c(OCC(O)CN3CCN(C(=O)C(c4ccccc4)c4ccccc4)CC3)cccc2n1` (stereo not shown) [Example 8, 5-[3-(4-(2,2-Diphenylacetyl)piperazine-1-yl) -2-hydroxypropoxy]-2-methoxyquinoline]: in test [1], the Average surviving period is on record as 12.2 ± 0.6 days and the “T/C (rate of life prolongation)” value was determined as 115%. For the same molecule, in test [2], the activity at 1 µg/mL was found to be 394% and the activity at 10 µg/mL was determined as 863%.

Regarding `OC(COc1cccc2nc(Cl)ccc12)CN1CCN(C2c3ccccc3CCc3ccccc32)CC1` (stereo not shown) [Example 18, 5-[3-(4-(5-Dibenzosuberanyl)piperazine-1-yl)-2-hydroxypropoxy]-2-chloroquinoline], in test [1], the Average surviving period is recorded as 13.8 ± 0.4 days and the “T/C (rate of life prolongation)” value amounted to 131%. In test [2], the activity at 1 µg/mL was 743% and the activity at 10 µg/mL is 761%.

Regarding `OC(CNc1cccc2ncccc12)CN1CCN(C(c2ccccc2)c2ccccc2)CC1` (stereo not shown) [Example 27, 5-[3-(4-Diphenylmethylpiperazine-1-yl)-2-hydroxypropylamino]quinoline], in test [1], the Average surviving period worked out at 12.3 ± 0.3 days and the “T/C (rate of life prolongation)” value stood at 119%.

On to `c1ccc(C(c2ccccc2)N2CCN(CCCOc3cccc4ncccc34)CC2)cc1` [Example 32, 5-[3-(4-Diphenylmethylpiperazine-1-yl)propoxy]quinoline], for which, in test [1], the Average surviving period is reported as 11.3 ± 0.4 days and the “T/C (rate of life prolongation)” value stood at 110%. Further, the activity at 1 µg/mL in test [2] came to 816%.

Consider `Cc1cc(C)c2c(OCC(O)CN3CCN(C4c5ccccc5CCc5ccccc54)CC3)cccc2n1` (stereo not shown) [Example 22, 5-[3-(4-(Dibenzosuberane-5-yl)piperazine-1-yl)-2-hydroxypropoxy]-2,4-dimethylquinoline], for which, in test [1], the Average surviving period is reported as 13.9 ± 0.4 days and the “T/C (rate of life prolongation)” value came to 132%. Further, in test [2], the activity at 1 µg/mL came out at 723% and the activity at 10 µg/mL came to 743%.

In the case of `COc1ccc(C(c2cccc(OC)c2OC)N2CCN(CC(O)COc3cccc4ncccc34)CC2)cc1OC` (stereo not shown) [Example 11, 5-[3-(4-(2,3,3',4'-Tetramethoxydiphenylmethyl)piperazine-1-yl)-2-hydroxypropoxy]quinoline], in test [1], the Average surviving period was 12.1 ± 0.5 days and the “T/C (rate of life prolongation)” value is 115%. Also, in test [2], the activity at 1 µg/mL is 735%.

With `c1ccc(C(=C2CCN(CCCOc3cccc4ncccc34)CC2)c2ccccc2)cc1` [Example 84, 5-[3-(4-(Diphenylmethylene)piperidine-1-yl)propoxy]quinoline], in test [1], the Average surviving period amounted to 13.0 ± 0.7 days and the “T/C (rate of life prolongation)” value amounted to 121%. In addition, in test [2], the activity at 1 µg/mL amounted to 159% and the activity at 10 µg/mL came out at 878%.

As for `O=C(C(c1ccccc1)c1ccccc1)N1CCN(CC(O)COc2cccc3ncccc23)CC1` (stereo not shown) [Example 16, 5-[3-(4-(2,2-Diphenylacetyl)piperazine-1-yl)-2-hydroxypropoxy]quinoline], in test [1], the Average surviving period was found to be 13.9 ± 1.4 days and the “T/C (rate of life prolongation)” value is on record as 132%. In test [2], the activity at 1 µg/mL was 850% and the activity at 10 µg/mL worked out at 982%.

Turning to `Cc1cc(C)c2c(OCC(O)CN3CCN(C(=O)C(c4ccccc4)c4ccccc4)CC3)cccc2n1` (stereo not drawn) [Example 53, 2,4-Dimethyl-5-[3-((α,α-diphenylacetyl)piperazine-1-yl)-2-hydroxypropoxy]quinoline], in test [1], the Average surviving period was 11.8 ± 0.8 days and the “T/C (rate of life prolongation)” value was 111%. For the same molecule, in test [2], the activity at 1 µg/mL stood at 658% and the activity at 10 µg/mL is 794%.

On to `OC(COc1cccc2ncccc12)CN1CCC(C(O)(c2ccccc2)c2ccccc2)CC1` (stereo not shown) [Example 7, 5-[3-(4-(Diphenyl-hydroxymethyl)piperidine-1-yl)-2-hydroxypropoxy]quinoline], for which, in test [1], the Average surviving period was determined as 12.9 ± 0.5 days and the “T/C (rate of life prolongation)” value is 123%. Also, in test [2], the activity at 1 µg/mL was 972%.

Consider `OC(COc1cccc2ncccc12)CN1CCN(C(c2ccc(F)cc2)c2ccc(F)cc2)CC1` (stereo not shown) [Example 57, 5-(3-[4-(Bis(4-fluorophenyl)methyl)piperazine-1-yl]-2-hydroxypropoxy)quinoline], for which, in test [1], the Average surviving period is 13.1 ± 0.4 days and the “T/C (rate of life prolongation)” value was 124%. In test [2], the activity at 1 µg/mL was determined as 572% and the activity at 10 µg/mL worked out at 732%.

As to `OC(COc1cccc2ncccc12)CN1CCN(CC(c2ccccc2)c2ccccc2)CC1` (stereo not shown) [Example 17, 5-[3-(4-(2,2-Diphenylethyl)piperazine-1-yl)-2-hydroxypropoxy]quinoline], in test [1], the Average surviving period worked out at 11.8 ± 1.1 days and the “T/C (rate of life prolongation)” value is reported as 115%. Moreover, the activity at 1 µg/mL in test [2] stood at 730%.

In the case of `OC(COc1cccc2ncccc12)CN1CCC(C(c2ccccc2)c2ccccc2)CC1` (stereo not shown) [Example 14, 5-[3-(4-(Diphenylmethyl)piperidine-1-yl)-2-hydroxypropoxy]quinoline], in test [2], the activity at 1 µg/mL worked out at 119% and the activity at 10 µg/mL stood at 871%.

`OC(COc1cccc2ncccc12)CN1CCC(C2(O)c3ccccc3C=Cc3ccccc32)CC1` (stereo not shown) [Example 79, 5-[2-Hydroxy-3-(4-(5-hydroxydibenzosuberene-5-yl)piperidine-1-yl)propoxy]quinoline]: in test [2], the activity at 1 µg/mL came out at 841% and the activity at 10 µg/mL worked out at 963%.

As for `OC(COc1cccc2ncccc12)CN1CCN(C2c3ccccc3COc3ccccc32)CC1` (stereo not shown) [Example 6, 5-[3-(4-(6,11-Dihydrodibenzo[b,e]oxepine-11-yl)piperazine-1-yl)-2-hydroxypropoxy]quinoline], in test [1], the Average surviving period came out at 13.4 ± 0.7 days and the “T/C (rate of life prolongation)” value was 128%.

`OC(COc1cccc2nccnc12)CN1CCN(C(c2ccccc2)c2ccccc2)CC1` (stereo not shown) [Example 50, 5-[3-(4-Diphenylmethylpiperazine-1-yl)-2-hydroxypropoxy]quinoxaline]: in test [2], the activity at 1 µg/mL came out at 559% and the activity at 10 µg/mL was determined as 668%.

As for `Cc1cc(C)c2c(OCC(O)CN(C)CCN(C)C3c4ccccc4CCc4ccccc43)cccc2n1` (stereo not shown) [Example 66, 2,4-Dimethyl-5-[3-(N,N'-dimethyl-N'-(dibenzosuberane-5-yl)ethylenediamino)-2-hydroxypropoxy]quinoline], the activity at 1 µg/mL in test [2] was found to be 488%.

As to `O=[N+]([O-])c1ccc(OCC(O)CN2CCN(C(c3ccccc3)c3ccccc3)CC2)c2cccnc12` (stereo not shown) [Example 26, 5-[3-(4-Diphenylmethylpiperazine-1-yl)-2-hydroxypropoxy]-8-nitroquinoline], in test [2], the activity at 1 µg/mL is 177%.

In the case of `OC(COc1ccc(Cl)c2ncccc12)CN1CCN(C(c2ccccc2)c2ccccc2)CC1` (stereo not shown) [Example 29, 5-[3-(4-Diphenylmethylpiperazine-1-yl)-2-hydroxypropoxy]-8-chloroquinoline], in test [2], the activity at 1 µg/mL came out at 246%.

Consider `OC(COc1cccc2ncccc12)CN1CCC(=C2c3ccccc3C=Cc3ccccc32)CC1` (stereo not shown) [Example 77, 5-[3-(4-(Dibenzosuberene-5-ylidene)piperidine-1-yl)2-hydroxypropoxy]quinoline], for which, in test [1], the Average surviving period was 13.8 ± 1.2 days and the “T/C (rate of life prolongation)” value is reported as 129%.

Take `CN(CCN(C)C1c2ccccc2CCc2ccccc21)CC(O)COc1cccc2ncccc12` (stereo not shown) [Example 63]: in test [2], the activity at 1 µg/mL worked out at 773%.

As for `CC(=O)OC(CN1CCN(C(c2ccccc2)c2ccccc2)CC1)CN(C(C)=O)c1cccc2ncccc12` (stereo not shown) [Example 39, 5-[N-Acetyl-(2-acetoxy-3-(4-diphenylmethylpiperazine-1-yl)propylamino)]quinoline], in test [2], the activity at 1 µg/mL was 236% and the activity at 10 µg/mL was 908%.

In the case of `CSc1ccc2c(OCC(O)CN3CCN(C(=O)C(c4ccccc4)c4ccccc4)CC3)cccc2n1` (stereo not drawn) [Example 65, 2-Methylthio-5-[3-(4-(α,α-diphenylacetyl)piperazine-1-yl)-2-hydroxypnopoxy]quinoline], in test [2], the activity at 1 µg/mL came out at 297% and the activity at 10 µg/mL came out at 985%.

The values are drawn from patent US5405843A, “Quinoline derivatives” (Mitsui Toatsu Chemicals, Incorporated, priority 1988, dated 1995).
